This is an account of results in patent US20220389465A1, “METHODS OF REDUCING BIURET IN UREA COMPOSITIONS” (Regents of the University of Minnesota, priority 2019, published 2022).

Test [1] concerns cyanuric acid hydrolase. The settings on record: no turnover observed; cited from earlier work.
Test [2] deals with triuret hydrolase.
Test [3] concerns native biuret hydrolase (BiuH) from Herbaspirillum sp. BH-1, six-histidine tag. Description: BiuH activity in the presence of urea (Berthelot ammonia assay, FIGS. 4, 5A-5B). It is filed as biochemical. The procedure:
FIG. 4. Evaluation of urea inhibition of biuret hydrolase and various urea concentrations. Biuret was added at 0.8 mM concentration and 30 microgram enzyme per ml incubated for 30 minutes.
(§1) Analytical methods: The colorimetric Berthelot ammonia assay was used to measure residual ammonium (NH4^+) present in the urea and to detect NH4^+ released from the residual biuret in urea by addition of biuret hydrolase (BiuH) enzyme. The assay was conducted by adding 0.100 ml of sample directly to 0.300 ml of solution A (10 g/L phenol and 0.050 g/L sodium nitroprusside), followed by addition of 0.400 ml of solution B (5 g/L sodium hydroxide and 8.25 ml/L of commercial chlorine bleach or 5.25% sodium hypochlorite). The reactions were pulsed on a vortex mixer, incubated at 37° C. for 60 min, and then absorbance at 630 nm was read with a Beckman-Coulter DU-640 spectrophotometer. Quantification of NH4^+ was done via a standard curve prepared from ammonium chloride (NH4Cl) (Sigma-Aldrich, St. Louis, Mo.) standards at 5-1000 μM in deionized reverse osmosis (DI/RO) water that were analyzed with the Berthelot reaction.
Enzyme purification: A synthetic gene encoding the native biuret hydrolase from Herbaspirillum sp. BH-1 was expressed with a C- or N-terminal six-histidine tag from an isopropyl-β-D-thiogalactoside (IPTG)-inducible promoter T7 promoter on a plasmid in Eschrichia coli BL2(DE3). Cells were harvested by centrifugation and lysed with a French pressure cell (two passages at 124 MPa) in a buffer of 20 mM sodium phosphate (pH 7.4), 500 mM sodium chloride, 10 mM imidazole, and 10 mM 2-mercaptoethanol. The resulting crude lysate was centrifuged at 19,000×g for 60 min and the supernatant was passed through a […] filter. An AKTA FPLC system (GE Healthcare, Chicago, Ill.) was used to inject the filtrate (cleared crude lysate) onto a HisTrap affinity column (GE Healthcare) charged with Ni^2+ ions. Bound BiuH was eluted from the column with a linear gradient of 20-250 mM imidazole in the same buffer. […] Total protein concentration was determined with the BioRad (Hercules, Calif.) Bradford protein assay reagent and BiuH purity was verified by SDS-PAGE. […]
BiuH activity in the presence of urea: Biuret degradation reactions were performed by adding 10-20 μg purified BiuH to 0.5 ml of urea standards (0.5-8 M) in DI/RO water in 1.7 ml microcentrifuge tubes. […] Total ammonium (NH4^+) was quantified with the Berthelot assay. Residual biuret present in urea was determined by treating unspiked urea standards with BiuH and subtracting the amount of residual NH4^+ detected above. […] Net NH4^+ released from the spiked biuret by BiuH was calculated by subtracting the amounts of residual biuret and NH4^+ detected in the control treatments. […]

Test [4] concerns the target T1, triuret hydrolase (TrtA) from Herbaspirillum sp. BH-1 (Herbaspirillum sp. BH-1, UniProt A0A2N6JFX7).
T1 sequence (A0A2N6JFX7 1-227): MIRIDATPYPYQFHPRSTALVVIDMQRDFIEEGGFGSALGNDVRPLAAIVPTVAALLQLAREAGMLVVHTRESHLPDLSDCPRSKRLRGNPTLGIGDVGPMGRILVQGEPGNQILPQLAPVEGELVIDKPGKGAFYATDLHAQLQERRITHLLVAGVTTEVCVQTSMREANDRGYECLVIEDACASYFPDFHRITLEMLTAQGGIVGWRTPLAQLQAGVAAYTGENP
Description: Kinetic constants of triuret hydrolase (Km for triuret, inhibition by urea, FIG. 16B). To be noted: urea concentrations up to 50 mM. It is filed as biochemical.

Test [5] concerns the target T2, biuret hydrolase (Rhizobium johnstonii, UniProt Q1M7F4).
T2 construct: six-histidine tag (C); made in house; host or cells: Escherichia coli BL21(DE3)
The experiment in a line: Inhibition of biuret hydrolase by urea, kinetic constants. It is filed as biochemical.

Test [6] has as its system biuret hydrolase. The experiment in a line: BiuH activity in the presence of urea (Berthelot ammonia assay). It is filed as biochemical, Herbaspirillum sp. BH-1. The procedure: as §1
BiuH activity in the presence of urea: Biuret degradation reactions were performed by adding 10-20 μg purified BiuH to 0.5 ml of urea standards (0.5-8 M) in DI/RO water in 1.7 ml microcentrifuge tubes. […] Total ammonium (NH4^+) was quantified with the Berthelot assay. Residual biuret present in urea was determined by treating unspiked urea standards with BiuH and subtracting the amount of residual NH4^+ detected above. […]

The structures appear in SMILES notation.

T2 sequence (Q1M7F4 whole entry): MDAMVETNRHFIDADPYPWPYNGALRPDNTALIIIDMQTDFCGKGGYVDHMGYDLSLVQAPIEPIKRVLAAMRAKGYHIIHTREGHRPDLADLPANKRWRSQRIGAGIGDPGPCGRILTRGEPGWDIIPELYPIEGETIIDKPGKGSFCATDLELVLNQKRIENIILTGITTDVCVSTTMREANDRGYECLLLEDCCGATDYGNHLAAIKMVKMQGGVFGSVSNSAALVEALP

Consider `O=C1CC(=O)NC(=O)N1` [barbituric acid], for which the “effect on cyanuric acid hydrolase” value in test [1] is “inhibitor”.
Take `NC(=O)NC(=O)NC(N)=O` [triuret]: the Km in test [2] (read-out: Km for triuret) was 20 to 21 µM.
Take `NC(N)=O` [urea]: the inhibition by urea result in test [3] (4M urea, residual biuret in Fluka urea) was “slight inhibition”; in test [3] (10,000 fold higher concentration of urea than biuret), “not inhibited”; in test [3] (urea concentrations higher than 4M (up to 8.0 M), residual biuret in Fluka urea), “stronger inhibition”; in test [3] (urea up to 0.5M, 0.8 mM biuret, 30 microgram enzyme per ml, 30 minutes), “not inhibited”; in test [4], “no inhibition was measurable”. In test [2] (urea concentrations up to 50 mM), the “inhibition of triuret hydrolase by urea” value is given as “no inhibition”. The affinity in test [5], expressed as Ki, was 34 mM. Further, the “inhibition of biuret hydrolase by urea” value in test [6] (4M urea, NH4+ released from residual biuret in 0.5-8.0 M Fluka urea) is on record as “slight inhibition”; in test [6] (urea up to 0.5M, biuret 0.8 mM, 30 microgram enzyme per ml, 30 minutes), “not inhibited”.
